Measured values taken from US20240199647A1, “ANTI-VIRAL COMPOUNDS” (Aligos Therapeutics, Inc., priority 2022, published 2024).
Read-outs that look alike come from different tables or passages of the source.

Legend:
[1] = target: SARS-Cov-2 3CLpro (Severe acute respiratory syndrome coronavirus 2, UniProt P0DTD1); experiment: biochemical; settings: Table A, read-out: SARS-Cov-2 (IC50)
[2] = tested on: SARS-CoV-2 B.1.1.7 lineage; experiment: microbe, parasite or virus in culture; format: cell-based; settings: Severe acute respiratory syndrome coronavirus 2, Table C, SARS-CoV-2 B.1.1.7 in A549-dual_ACE2_TMPRSS2 cells, read-out: A549-dual_ACE2_TMPRSS2 (EC50)
[3] = in vitro; settings: human

Compound	IC50 ([1]; class symbols)	EC50 ([2]; class symbols)	CC50 [3]	EC50 ([2]; cells given as a bound)	IC50 ([1]; cells given as a bound)
CN(C(=O)[C@@H]1CC[C@@H](c2ccccc2)N1C)[C@@H](CC1CC1)C(=O)N1C[C@@]2(C[C@H]1C#N)Oc1cc(F)cc(F)c1NC2=O [Compound 153]	20 to 200 nM	100 to 1000 nM	> 1000 nM		
CN(C(=O)[C@@H](NC(=O)C(F)(F)F)C12CC(C1)C2)[C@@H](CC1CC1)C(=O)N1C[C@@]2(C[C@H]1C#N)Oc1cccnc1NC2=O [Compound 217]	< 20 nM	100 to 1000 nM	> 1000 nM		
CC(C)C[C@@H](C(=O)N1C[C@]2(CC(C(C)C)NC2=O)C[C@H]1C#N)N(C)C(=O)[C@H](C)NC(=O)C(F)(F)F (stereo partly drawn) [Example 38]	< 20 nM	100 to 1000 nM	> 1000 nM		
CN(C(=O)[C@H](CCCN)NC(=O)C(F)(F)F)[C@@H](CC1CC1)C(=O)N1C[C@@]2(C[C@H]1C#N)Oc1cccnc1NC2=O [Compound 236]	< 20 nM				
CN(C(=O)[C@@H](CC1CCCCC1)NC(=O)C(F)(F)F)[C@@H](CC1CC1)C(=O)N1C[C@@]2(C[C@H]1C#N)Oc1cccnc1NC2=O [Compound 145]	< 20 nM	< 100 nM	> 1000 nM		
CN(C(=O)c1cnc(-c2ccccc2)[nH]1)[C@@H](CC1CC1)C(=O)N1C[C@@]2(C[C@H]1C#N)Oc1cccnc1NC2=O [Compound 211]	20 to 200 nM	100 to 1000 nM	> 1000 nM		
CC(C)C[C@@H](C(=O)N1C[C@@]2(C[C@H]1C#N)Oc1ccc(F)cc1NC2=O)N(C)C(=O)[C@H](C)NC(=O)C(F)(F)F [Compound 14a, (S)—N—((S)-1-((2R,5'S)-5′-cyano-6-fluoro-3-oxo-3,4-dihydrospiro[benzo[b][1,4]oxazine-2,3′-pyrrolidin]-1′-yl)-4-methyl-1-oxopentan-2-yl)-N-methyl-2-(2,2,2-trifluoroacetamido)propanamide]		100 to 1000 nM	> 1000 nM		
CO[C@H](C)[C@H](NC(=O)C(F)(F)F)C(=O)N(C)[C@@H](CC1CC1)C(=O)N1C[C@@]2(C[C@H]1C#N)Oc1ncccc1NC2=O [Compound 240]	< 20 nM				
CO[C@H](C)[C@H](NC(=O)C(F)(F)F)C(=O)N(C)[C@@H](CC1CC1)C(=O)N1C[C@@]2(C[C@H]1C#N)Oc1cccnc1NC2=O [Compound 239]	< 20 nM				
C[C@H](NC(=O)C(F)(F)F)C(=O)N(C)[C@@H](CC1CC1)C(=O)N1C[C@@]2(C[C@H]1C#N)Oc1c(cccc1OC(F)(F)F)NC2=O [Compound 235]	< 20 nM				
CN(C(=O)[C@H](CC1CC1)NC(=O)C(F)(F)Cl)[C@@H](CC1CC1)C(=O)N1C[C@@]2(C[C@H]1C#N)Oc1ncccc1NC2=O [Compound 238]	< 20 nM				
CN(C(=O)[C@@H](NC(=O)C(F)(F)F)C1CCCC1)[C@@H](CC1CC1)C(=O)N1C[C@@]2(C[C@H]1C#N)Oc1cccnc1NC2=O [Compound 218]	< 20 nM	< 100 nM	> 1000 nM		
[2H]C([2H])([2H])N(C(=O)[C@H](C)NC(=O)C(F)(F)F)[C@@H](CC(C)C)C(=O)N1C[C@@]2(C[C@H]1C#N)Oc1cc(F)cc(F)c1NC2=O [Compound 109]	< 20 nM	100 to 1000 nM	> 1000 nM		
CN(C(=O)c1nnc(-c2ccccc2)[nH]1)[C@@H](CC1CC1)C(=O)N1C[C@@]2(C[C@H]1C#N)Oc1cccnc1NC2=O [Compound 210]	200 to 2000 nM		> 1000 nM	> 1000 nM	
COc1cccc(C[C@@H](NC(=O)C(F)(F)F)C(=O)N(C)[C@@H](CC2CC2)C(=O)N2C[C@@]3(C[C@H]2C#N)Oc2cccnc2NC3=O)c1 [Compound 152]	< 20 nM	< 100 nM	> 1000 nM		
CN(C(=O)c1cc2ccccc2c(=O)[nH]1)[C@@H](CC1CC1)C(=O)N1C[C@@]2(C[C@H]1C#N)Oc1cccnc1NC2=O [Compound 237]	200 to 2000 nM				
CC([C@H](NC(=O)C(F)(F)F)C(=O)N(C)[C@@H](CC1CC1)C(=O)N1C[C@@]2(C[C@H]1C#N)Oc1cccnc1NC2=O)C(C)(C)C (stereo partly drawn) [Compound 234]	< 20 nM				

Compound	IC50 ([1]; class symbols)	EC50 ([2]; class symbols)	CC50 [3]	EC50 ([2]; cells given as a bound)	IC50 ([1]; cells given as a bound)
CC(C)C[C@@H](C(=O)N1CC2(C[C@H]1C#N)Cn1nccc1NC2=O)N(C)C(=O)[C@H](C)NC(=O)C(F)(F)F (stereo partly drawn) [Example 40, (2S)—N-((2S)-1-((5'S)-5′-cyano-5-oxo-4,5-dihydro-7H-spiro[pyrazolo[1,5-a]pyrimidine-6,3′-pyrrolidin]-1′-yl)-4-methyl-1-oxopentan-2-yl)-N-methyl-2-(2,2,2-trifluoroacetamido)propanamide]	200 to 2000 nM		> 1000 nM	> 1000 nM	
CC(C)C[C@@H](C(=O)N1CC2(C[C@H]1C#N)C(=O)Nc1ccnn12)N(C)C(=O)[C@H](C)NC(=O)C(F)(F)F (stereo partly drawn) [Example 7, (2S)—N-[(2S)-1-[(5'S)-5′-cyano-2-oxo-1H-spiro[pyrazolo[1,5-a]imidazole-3,3′-pyrrolidin]-1′-yl]-4-methyl-1-oxopentan-2-yl]-N-methyl-2-(2,2,2-trifluoroacetamido)propanamide]	20 to 200 nM	1000 to 10000 nM	> 1000 nM		
CN(C(=O)[C@@H](Cc1ccncc1)NC(=O)C(F)(F)F)[C@@H](CC1CC1)C(=O)N1C[C@@]2(C[C@H]1C#N)Oc1cccnc1NC2=O [Compound 148]	< 20 nM		> 1000 nM	> 1000 nM	
CC(C)C[C@H](C(=O)N1C[C@@]2(C[C@H]1C#N)Oc1ccc(F)cc1NC2=O)N(C)C(=O)[C@H](C)NC(=O)C(F)(F)F [Compound 14b, (S)—N—((R)-1-((2R,5'S)-5′-cyano-6-fluoro-3-oxo-3,4-dihydrospiro[benzo[b][1,4]oxazine-2,3′-pyrrolidin]-1′-yl)-4-methyl-1-oxopentan-2-yl)-N-methyl-2-(2,2,2-trifluoroacetamido)propanamide]			> 1000 nM	> 1000 nM	
CC(C)C[C@@H](C(=O)N1CC2(C[C@H]1C#N)Cn1nc(Br)cc1NC2=O)N(C)C(=O)[C@H](C)NC(=O)C(F)(F)F (stereo partly drawn) [Example 41, (2S)—N-((2S)-1-((5'S)-2-bromo-5′-cyano-5-oxo-4,5-dihydro-7H-spiro[pyrazolo[1,5-a]pyrimidine-6,3′-pyrrolidin]-1′-yl)-4-methyl-1-oxopentan-2-yl)-N-methyl-2-(2,2,2-trifluoroacetamido)propanamide]	200 to 2000 nM		> 1000 nM	> 1000 nM	
CN(C(=O)[C@H](CC1CC1)NC(=O)c1ccc(F)cc1)[C@@H](CC1CC1)C(=O)N1C[C@@]2(C[C@H]1C#N)Oc1ccccc1CNC2=O [Compound 161]	< 20 nM	< 100 nM	> 1000 nM		
CN(C(=O)[C@H](CC1CC1)NC(=O)C(F)(F)F)[C@@H](CC1CC1)C(=O)N1C[C@@]2(C[C@H]1C#N)Sc1ccccc1NC2=O [Example 39, (S)—N—((S)-1-((2R,5'S)-5′-cyano-3-oxo-3,4-dihydrospiro[benzo[b][1,4]thiazine-2,3′-pyrrolidin]-1′-yl)-3-cyclopropyl-1-oxopropan-2-yl)-3-cyclopropyl-N-methyl-2-(2,2,2-trifluoroacetamido)propanamide]	< 20 nM	< 100 nM	> 1000 nM		
CC(C)C[C@@H](C(=O)N1C[C@@]2(CCCNC2=O)C[C@H]1C#N)N(C)C(=O)[C@H](C)NC(=O)C(F)(F)F [Compound 9, (S)—N—((S)-1-((3S,5R)-3-cyano-6-oxo-2,7-diazaspiro[4.5]decan-2-yl)-4-methyl-1-oxopentan-2-yl)-N-methyl-2-(2,2,2-trifluoroacetamido)propanamide]	20000 to 100000 nM	1000 to 10000 nM	> 1000 nM		
C[C@H](NC(=O)C(F)(F)F)C(=O)N[C@@H](CC(C)(C)C)C(=O)N1C[C@@]2(C[C@H]1C#N)Oc1cc(F)cc(F)c1NC2=O [Compound 68]	20 to 200 nM		> 1000 nM	> 1000 nM	
C[C@H](NC(=O)C(F)(F)F)C(=O)N[C@@H](CC1CC1)C(=O)N1C[C@@]2(C[C@H]1C#N)Oc1cccnc1NC2=O [Compound 180]	200 to 2000 nM		> 1000 nM	> 1000 nM	
CN(C(=O)[C@@H](Cc1cccnc1)NC(=O)C(F)(F)F)[C@@H](CC1CC1)C(=O)N1C[C@@]2(C[C@H]1C#N)Oc1cccnc1NC2=O [Compound 151]	< 20 nM	100 to 1000 nM	> 1000 nM		
C[C@H](NC(=O)C1(C)CCC1)C(=O)N(C)[C@@H](CC1CC1)C(=O)N1C[C@@]2(C[C@H]1C#N)Oc1cccnc1NC2=O [Compound 212]	< 20 nM	100 to 1000 nM	> 1000 nM		
C[C@H](NC(=O)C12CC(C1)C2)C(=O)N(C)[C@@H](CC1CC1)C(=O)N1C[C@@]2(C[C@H]1C#N)Oc1cccnc1NC2=O [Compound 216]	< 20 nM	100 to 1000 nM	> 1000 nM		
CC(C)C[C@@H](C(=O)N1C[C@]2(C[C@H]1C#N)C(=O)NC(=O)N2C)N(C)C(=O)[C@H](C)NC(=O)C(F)(F)F [Compound 10, (S)—N—((S)-1-((5R,8S)-8-cyano-1-methyl-2,4-dioxo-1,3,7-triazaspiro[4.4]nonan-7-yl)-4-methyl-1-oxopentan-2-yl)-N-methyl-2-(2,2,2-trifluoroacetamido)propanamide]	200 to 2000 nM	1000 to 10000 nM	> 1000 nM		
CN(C(=O)[C@H](CC1CC1)NC(=O)C(F)(F)C(F)(F)F)[C@@H](CC1CC1)C(=O)N1C[C@@]2(C[C@H]1C#N)Oc1ccccc1CNC2=O [Compound 162]	< 20 nM	< 100 nM	> 1000 nM		
CN(C(=O)[C@H](CC1CC1)NC(=O)C(F)(F)F)[C@@H](CC1CC1)C(=O)N1C[C@@]2(C[C@@H]1C#N)C(=O)NCc1ccccc12 (single isomer, unassigned) [Compound 123]					> 2000 nM
